Values quoted from earlier work, collected in patent US7163917B2, “Synthesis method of alanylglutamine” (priority 2002, dated 2007).
Values belong to the compound of their own block, whether it stands above or below them. Peptide text beside a SMILES is read from it.

Columns and labels:
[1] = solution, storage, heating to sterilize
[2] = within human body; quickly degraded into composition amino acids
[3] = healthy human body, long period intravenous drip
[4] = background statement

- solubility (in words): low in solubility
SMILES: NC(=O)CC[C@H](N)C(=O)O [GLN, glutamine]

- half-life (in words) [2]: short
- kidney functions [3]: not influenced
- solubility relative to GLN monomer (synthesized by chemical method, after purification): 20 times
SMILES: C[C@H](N)C(=O)N[C@@H](CCC(N)=O)C(=O)O [L-Ala-L-Gln, L-alanyl-L-glutamine] (H-Ala-Gln-OH)
- stability (in words) [1]: stable in storage and at heating for sterilization
- side effects and harmful reaction [3]: no side effects and harmful reaction occur

- stability (in words) [1]: stable at heating
- quantity absorbed that is excreted from urea [4]: 40%
SMILES: CC(=O)N[C@@H](CCC(N)=O)C(=O)O [acetylglutamine, reference compound]

- half-life (in words) [2]: short
SMILES: NCC(=O)N[C@@H](CCC(N)=O)C(=O)O [glycylglutamine, L-glycyl-L-glutamine, reference compound] (H-Gly-Gln-OH)
